Tested on: Genes belonging to other category
Test: DNA chip mRNA expression in yeast, genes belonging to other category (Table 9)
Format: cell-based, Saccharomyces cerevisiae S288C
How it was run: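 Ratios compare mRNA levels in stressed and control S. cerevisiae. Each toxicant was applied for two hours to log-phase cultures at 25° C. at a sub-lethal, growth-inhibiting level; fluorescent cDNA (Cy3- or Cy5-dUTP) was hybridized to a genome-wide yeast chip for over 12 h at 65° C.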

Oc1cc(Cl)c(Cl)cc1Cl [(6), 2,4,5-trichlorophenol]
The level of expressed mRNA in the presence of chemical substance/The level of expressed mRNA in the absence of chemical substance (yeast gene YAR010C): 2.3
The level of expressed mRNA in the presence of chemical substance/The level of expressed mRNA in the absence of chemical substance (yeast gene YBL005W-A): 1.2
The level of expressed mRNA in the presence of chemical substance/The level of expressed mRNA in the absence of chemical substance (yeast gene YBL041W): 1.7
The level of expressed mRNA in the presence of chemical substance/The level of expressed mRNA in the absence of chemical substance (yeast gene YBL043W): 26.9
The level of expressed mRNA in the presence of chemical substance/The level of expressed mRNA in the absence of chemical substance (yeast gene YBL078C): 2.4
The level of expressed mRNA in the presence of chemical substance/The level of expressed mRNA in the absence of chemical substance (yeast gene YBL101W-A): 1.4
The level of expressed mRNA in the presence of chemical substance/The level of expressed mRNA in the absence of chemical substance (yeast gene YBR170C): 1.4
The level of expressed mRNA in the presence of chemical substance/The level of expressed mRNA in the absence of chemical substance (yeast gene YBR173C): 1.3
The level of expressed mRNA in the presence of chemical substance/The level of expressed mRNA in the absence of chemical substance (yeast gene YBR212W): 1.4
The level of expressed mRNA in the presence of chemical substance/The level of expressed mRNA in the absence of chemical substance (yeast gene YBR214W): 0.8
The level of expressed mRNA in the presence of chemical substance/The level of expressed mRNA in the absence of chemical substance (yeast gene YCL020W): 1.0
The level of expressed mRNA in the presence of chemical substance/The level of expressed mRNA in the absence of chemical substance (yeast gene YCL027W): 1.3
The level of expressed mRNA in the presence of chemical substance/The level of expressed mRNA in the absence of chemical substance (yeast gene YCR004C): 1.8
The level of expressed mRNA in the presence of chemical substance/The level of expressed mRNA in the absence of chemical substance (yeast gene YCR069W): 1.4
The level of expressed mRNA in the presence of chemical substance/The level of expressed mRNA in the absence of chemical substance (yeast gene YCR071C): 2.5
The level of expressed mRNA in the presence of chemical substance/The level of expressed mRNA in the absence of chemical substance (yeast gene YCR088W): 2.0
The level of expressed mRNA in the presence of chemical substance/The level of expressed mRNA in the absence of chemical substance (yeast gene YCR106W): 1.4
The level of expressed mRNA in the presence of chemical substance/The level of expressed mRNA in the absence of chemical substance (yeast gene YDL008W): 2.7
The level of expressed mRNA in the presence of chemical substance/The level of expressed mRNA in the absence of chemical substance (yeast gene YDL018C): 1.4
The level of expressed mRNA in the presence of chemical substance/The level of expressed mRNA in the absence of chemical substance (yeast gene YDL143W): 1.0
The level of expressed mRNA in the presence of chemical substance/The level of expressed mRNA in the absence of chemical substance (yeast gene YDL220C): 1.8
The level of expressed mRNA in the presence of chemical substance/The level of expressed mRNA in the absence of chemical substance (yeast gene YDL230W): 0.9
The level of expressed mRNA in the presence of chemical substance/The level of expressed mRNA in the absence of chemical substance (yeast gene YDL238C): 2.1
The level of expressed mRNA in the presence of chemical substance/The level of expressed mRNA in the absence of chemical substance (yeast gene YDR055W): 3.9
The level of expressed mRNA in the presence of chemical substance/The level of expressed mRNA in the absence of chemical substance (yeast gene YDR084C): 2.1
The level of expressed mRNA in the presence of chemical substance/The level of expressed mRNA in the absence of chemical substance (yeast gene YDR085C): 2.1
The level of expressed mRNA in the presence of chemical substance/The level of expressed mRNA in the absence of chemical substance (yeast gene YDR104C): 1.7
The level of expressed mRNA in the presence of chemical substance/The level of expressed mRNA in the absence of chemical substance (yeast gene YDR115W): 2.3
The level of expressed mRNA in the presence of chemical substance/The level of expressed mRNA in the absence of chemical substance (yeast gene YDR212W): 1.4
The level of expressed mRNA in the presence of chemical substance/The level of expressed mRNA in the absence of chemical substance (yeast gene YDR259C): 0.5
The level of expressed mRNA in the presence of chemical substance/The level of expressed mRNA in the absence of chemical substance (yeast gene YDR264C): 1.8
The level of expressed mRNA in the presence of chemical substance/The level of expressed mRNA in the absence of chemical substance (yeast gene YDR315C): 9.4
The level of expressed mRNA in the presence of chemical substance/The level of expressed mRNA in the absence of chemical substance (yeast gene YDR358W): 2.5
The level of expressed mRNA in the presence of chemical substance/The level of expressed mRNA in the absence of chemical substance (yeast gene YDR388W): 1.0
The level of expressed mRNA in the presence of chemical substance/The level of expressed mRNA in the absence of chemical substance (yeast gene YDR403W): 1.1
The level of expressed mRNA in the presence of chemical substance/The level of expressed mRNA in the absence of chemical substance (yeast gene YDR432W): 0.6
The level of expressed mRNA in the presence of chemical substance/The level of expressed mRNA in the absence of chemical substance (yeast gene YDR481C): 0.9
The level of expressed mRNA in the presence of chemical substance/The level of expressed mRNA in the absence of chemical substance (yeast gene YDR510W): 1.0
The level of expressed mRNA in the presence of chemical substance/The level of expressed mRNA in the absence of chemical substance (yeast gene YEL042W): 0.5
The level of expressed mRNA in the presence of chemical substance/The level of expressed mRNA in the absence of chemical substance (yeast gene YEL066W): 2.2
The level of expressed mRNA in the presence of chemical substance/The level of expressed mRNA in the absence of chemical substance (yeast gene YER021W): 1.1
The level of expressed mRNA in the presence of chemical substance/The level of expressed mRNA in the absence of chemical substance (yeast gene YER039C): 1.6
The level of expressed mRNA in the presence of chemical substance/The level of expressed mRNA in the absence of chemical substance (yeast gene YER078C): 1.4
The level of expressed mRNA in the presence of chemical substance/The level of expressed mRNA in the absence of chemical substance (yeast gene YER094C): 1.1
The level of expressed mRNA in the presence of chemical substance/The level of expressed mRNA in the absence of chemical substance (yeast gene YER107C): 2.5
The level of expressed mRNA in the presence of chemical substance/The level of expressed mRNA in the absence of chemical substance (yeast gene YER130C): 2.7
The level of expressed mRNA in the presence of chemical substance/The level of expressed mRNA in the absence of chemical substance (yeast gene YFL022C): 0.9
The level of expressed mRNA in the presence of chemical substance/The level of expressed mRNA in the absence of chemical substance (yeast gene YFL028C): 1.7
The level of expressed mRNA in the presence of chemical substance/The level of expressed mRNA in the absence of chemical substance (yeast gene YFL038C): 1.3
The level of expressed mRNA in the presence of chemical substance/The level of expressed mRNA in the absence of chemical substance (yeast gene YFL043C): 1.8
The level of expressed mRNA in the presence of chemical substance/The level of expressed mRNA in the absence of chemical substance (yeast gene YFR051C): 0.2
The level of expressed mRNA in the presence of chemical substance/The level of expressed mRNA in the absence of chemical substance (yeast gene YGL056C): 0.4
The level of expressed mRNA in the presence of chemical substance/The level of expressed mRNA in the absence of chemical substance (yeast gene YGL093W): 1.0
The level of expressed mRNA in the presence of chemical substance/The level of expressed mRNA in the absence of chemical substance (yeast gene YGL150C): 1.1
The level of expressed mRNA in the presence of chemical substance/The level of expressed mRNA in the absence of chemical substance (yeast gene YGL158W): 0.4
The level of expressed mRNA in the presence of chemical substance/The level of expressed mRNA in the absence of chemical substance (yeast gene YGL166W): 1.0
The level of expressed mRNA in the presence of chemical substance/The level of expressed mRNA in the absence of chemical substance (yeast gene YGL229C): 2.2
The level of expressed mRNA in the presence of chemical substance/The level of expressed mRNA in the absence of chemical substance (yeast gene YGR136W): 1.1
The level of expressed mRNA in the presence of chemical substance/The level of expressed mRNA in the absence of chemical substance (yeast gene YGR189C): 0.5
The level of expressed mRNA in the presence of chemical substance/The level of expressed mRNA in the absence of chemical substance (yeast gene YGR213C): 4.1
The level of expressed mRNA in the presence of chemical substance/The level of expressed mRNA in the absence of chemical substance (yeast gene YGR253C): 1.4
The level of expressed mRNA in the presence of chemical substance/The level of expressed mRNA in the absence of chemical substance (yeast gene YGR257C): 2.1
The level of expressed mRNA in the presence of chemical substance/The level of expressed mRNA in the absence of chemical substance (yeast gene YHR004C): 2.0
The level of expressed mRNA in the presence of chemical substance/The level of expressed mRNA in the absence of chemical substance (yeast gene YHR027C): 0.4
The level of expressed mRNA in the presence of chemical substance/The level of expressed mRNA in the absence of chemical substance (yeast gene YHR028C): 0.9
The level of expressed mRNA in the presence of chemical substance/The level of expressed mRNA in the absence of chemical substance (yeast gene YHR071W): 2.0
The level of expressed mRNA in the presence of chemical substance/The level of expressed mRNA in the absence of chemical substance (yeast gene YHR082C): 0.8
The level of expressed mRNA in the presence of chemical substance/The level of expressed mRNA in the absence of chemical substance (yeast gene YHR136C): 1.4
The level of expressed mRNA in the presence of chemical substance/The level of expressed mRNA in the absence of chemical substance (yeast gene YHR139C): 1.9
The level of expressed mRNA in the presence of chemical substance/The level of expressed mRNA in the absence of chemical substance (yeast gene YHR142W): 1.2
The level of expressed mRNA in the presence of chemical substance/The level of expressed mRNA in the absence of chemical substance (yeast gene YHR160C): 1.0
The level of expressed mRNA in the presence of chemical substance/The level of expressed mRNA in the absence of chemical substance (yeast gene YHR166C): 1.8
The level of expressed mRNA in the presence of chemical substance/The level of expressed mRNA in the absence of chemical substance (yeast gene YHR205W): 1.0
The level of expressed mRNA in the presence of chemical substance/The level of expressed mRNA in the absence of chemical substance (yeast gene YIL015W): 0.4
The level of expressed mRNA in the presence of chemical substance/The level of expressed mRNA in the absence of chemical substance (yeast gene YIL075C): 0.8
The level of expressed mRNA in the presence of chemical substance/The level of expressed mRNA in the absence of chemical substance (yeast gene YIL123W): 0.5
The level of expressed mRNA in the presence of chemical substance/The level of expressed mRNA in the absence of chemical substance (yeast gene YIL129C): 0.3
The level of expressed mRNA in the presence of chemical substance/The level of expressed mRNA in the absence of chemical substance (yeast gene YIL140W): 0.5
The level of expressed mRNA in the presence of chemical substance/The level of expressed mRNA in the absence of chemical substance (yeast gene YIL142W): 1.1
The level of expressed mRNA in the presence of chemical substance/The level of expressed mRNA in the absence of chemical substance (yeast gene YIR009W): 1.4
The level of expressed mRNA in the presence of chemical substance/The level of expressed mRNA in the absence of chemical substance (yeast gene YJL073W): 2.0
The level of expressed mRNA in the presence of chemical substance/The level of expressed mRNA in the absence of chemical substance (yeast gene YJL089W): 1.6
The level of expressed mRNA in the presence of chemical substance/The level of expressed mRNA in the absence of chemical substance (yeast gene YJL116C): 3.4

Reference: patent US8192962B2, “Processes for detecting toxic substances” (Daikin Industries, Ltd., priority 2001, dated 2012)
